In patent publication US20100209530A1, “ANTI-ALLERGEN AGENT” (priority 2007, published 2010):

Assays:
[1] = target: T1, Dermatophagoides farinae allergen (Den) (Dermatophagoides farinae, UniProt Q00855); test: ELISA, anti-allergen effect of processed fiber product; assay type: biochemical; conditions: fabric after washing in 500 mL ion exchanged water 1 minute, air-dried; standardized to blank = 0
T1 sequence (Q00855 18-146): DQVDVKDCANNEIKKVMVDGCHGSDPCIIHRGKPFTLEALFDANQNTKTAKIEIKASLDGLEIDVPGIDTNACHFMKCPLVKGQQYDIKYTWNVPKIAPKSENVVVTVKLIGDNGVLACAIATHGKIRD
Protocol: When a test target is an article comprising another substance in addition to an anti-allergen agent, such as a coating agent containing an anti-allergen agent, a resin kneaded with an anti-allergen agent, or a fiber having an anti-allergen agent attached thereto, a blank test is carried out using the same article except that the anti-allergen agent is excluded, and other measurement results may be standardized so that the percentage allergen inactivation of the blank test becomes 0. In this case, as long as it is stated that a measurement result is standardized, the value after standardization may be used as the percentage allergen inactivation.
The anti-allergen effects of a processed fiber product were evaluated as percentage anti-allergen inactivation from Equation 1 above by measuring absorbance by the same ELISA method as for a solid acid powder using Dermatophagoides farinae allergen (Den) as the allergen and dividing […] of fiber into 8, and comparing with the absorbance when a fiber product having no solid acid added thereto was used.

[2] = Discoloration test in PBS or ion exchanged water; assay type: physicochemical
Protocol: (§1) 1 mg of anti-allergen agent (1) of Example 2-1 was placed in 0.5 mL of PBS (pH 7.29, containing 0.1% Tween 20 and 0.001% BSA) and allowed to stand at room temperature for 3 days, color change and allergen inactivating effect were then measured, and the results are shown in Table 7.
1 mg of anti-allergen agent (1) of Example 2-1 was placed in 0.5 mL of ion exchanged water (pH 6.37) and allowed to stand at room temperature for 7 days, color change was then examined, and the result is shown in Table 7.
(§2) 1 mg of tannic acid was placed in 0.5 mL of PBS (pH 7.29, containing 0.1% Tween 20 and 0.001% BSA) and allowed to stand at room temperature for 3 days, color change and allergen inactivating effect were then measured, and the results are shown in Table 7.
1 mg of tannic acid was placed in 0.5 mL of ion exchanged water (pH 6.37) and allowed to stand at room temperature for 7 days, color change was examined, and the result is shown in Table 7.

[3] = target: T2, Dermatophagoides farinae allergen (DerfII) (Dermatophagoides farinae, UniProt Q00855); assay type: biochemical; conditions: 1 mg of sample
T2 sequence (Q00855 18-146): T1 sequence (Q00855 18-146)
Protocol: (§3) The anti-allergen effect of the present invention is evaluated by a sandwich ELISA method, which is widely known as a method for detecting/quantifying an antigen, and is expressed as the percentage allergen inactivation shown in Equation 1. The initial amount of allergen means the amount of allergen used in an ELISA evaluation, and the amount of allergen remaining means the amount of allergen after contacting a sample.
(§4) Percentage allergen inactivation=(1−amount of allergen remaining/initial amount of allergen)×100(%) <Equation 1>
Anti-allergen effects were evaluated by a sandwich ELISA method employing Dermatophagoides farinae allergen (allergen generally called DerfII) and Cryptomeria japonica pollen allergen (allergen generally called Cryj1). […]
1 mg or 10 mg of a sample was weighed, and 500 μL of Dermatophagoides farinae allergen (DerfII) prepared at 40 ng/mL using an antigen diluent was added thereto. […] After 30 minutes, 2N sulfuric acid was added so as to stop the reaction, and the absorbance at 490 nm was measured. The results were expressed as percentage allergen inactivation of various samples by determining the relationship between amount of allergen and absorbance from an evaluation carried out without using a sample, determining the amount of allergen remaining from the absorbance obtained when evaluating various types of samples, and calculating from equation 1.

[4] = test system: allergen; test: Allergen inactivating effect after standing in PBS (discoloration test); assay type: biochemical; conditions: 1 mg after 3 days in 0.5 mL PBS at room temperature
Protocol: as §1, §2

[5] = target: T3, Cryptomeria japonica pollen allergen (Cryj1) (Cryptomeria japonica, UniProt P18632); assay type: biochemical; conditions: 1 mg of sample
T3 sequence (P18632 22-374): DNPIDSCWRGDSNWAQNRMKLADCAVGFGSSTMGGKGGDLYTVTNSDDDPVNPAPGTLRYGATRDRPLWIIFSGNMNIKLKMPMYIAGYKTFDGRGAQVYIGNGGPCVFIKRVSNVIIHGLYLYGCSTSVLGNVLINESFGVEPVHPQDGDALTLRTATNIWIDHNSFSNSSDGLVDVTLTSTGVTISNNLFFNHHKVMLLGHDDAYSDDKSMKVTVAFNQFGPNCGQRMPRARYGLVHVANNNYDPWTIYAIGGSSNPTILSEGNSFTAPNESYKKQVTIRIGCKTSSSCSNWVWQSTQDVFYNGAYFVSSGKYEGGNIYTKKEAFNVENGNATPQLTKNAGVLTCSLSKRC
Protocol: as §3, §4
The test procedure for the sandwich ELISA method when Cryptomeria japonica pollen allergen was used was as follows.
1 mg or 10 mg of a sample was weighed, and 500 μL of Cryptomeria japonica pollen allergen (Cryj1) prepared at 10 ng/mL using an antigen diluent was added thereto. […] After 2 hours, the antibody liquid was discarded, each well was washed with washing buffer, a substrate liquid was added to each well, and the wells were allowed to stand at room temperature. After 10 minutes, 2N sulfuric acid was added so as to stop the reaction, and the absorbance at 490 nm was measured. The results are expressed as percentage allergen inactivation of various types of samples by calculating from Equation 1 by the same method as for Dermatophagoides farinae allergen.

[6] = Yellowness (YI value, JIS-K7103-1977); assay type: physicochemical; conditions: powder
From the text: With regard to a preferred yellowness, the YI value in accordance with JIS-K7103-1977 is preferably 50 or less, more preferably 20 or less, and yet more preferably 15 or less.

Structure (SMILES): O=C(OC[C@H]1O[C@@H](OC(=O)c2cc(O)c(O)c(OC(=O)c3cc(O)c(O)c(O)c3)c2)[C@H](OC(=O)c2cc(O)c(O)c(OC(=O)c3cc(O)c(O)c(O)c3)c2)[C@@H](OC(=O)c2cc(O)c(O)c(OC(=O)c3cc(O)c(O)c(O)c3)c2)[C@@H]1OC(=O)c1cc(O)c(O)c(OC(=O)c2cc(O)c(O)c(O)c2)c1)c1cc(O)c(O)c(OC(=O)c2cc(O)c(O)c(O)c2)c1 [Comparative Example 2-1, Tannic Acid]
- Percentage allergen inactivation (%) [1]: activity disappeared after washing
- Color of solution (after evaluation) ([2]; 1 mg in 0.5 mL PBS pH 7.29 (0.1% Tween 20, 0.001% BSA), room temperature, 3 days): Brown
- Color of solution (after evaluation) ([2]; 1 mg in 0.5 mL ion exchanged water pH 6.37, room temperature, 7 days): Brown
- Percentage allergen inactivation (%) DerfII [3]: 95%
- Percentage allergen inactivation (%) [4]: Less than 50%
- Percentage allergen inactivation (%) Cryj1 [5]: 97%
- Yellowness [6]: 71.28
- Yellowness ([6]; listed as tannic acid): 71.8
